Measurements as given in patent US20230072164A1, “GRANULAR PHARMACEUTICAL PRODUCT FOR ORAL ADMINISTRATION FROM A PRE-FILLED STRAW AND METHOD OF MANUFACTURING SUCH PHARMACEUTICAL PRODUCT” (ALTERNO LABS D.O.O., priority 2020, published 2023).

Key:
Assay type in all cases: physicochemical
[1] = Dissolution of coated paracetamol crystals in water (taste masking, non-compendial); details: 100 mL purified water, room temperature
Experimental: A non-compendial test was performed in order to simulate the taste masking efficinecy of polymer coat during drug sipping. Pure paracetamol crystals were used as reference material. 100 mL of purified water was transferred in an Erlenmeyer flask on a magnetic stirrer at room temperature. The test formulation containing 250 mg of paracetamol was suspended in the Erlenmeyer flask and aliquotes of 5.0 mL were withdrawn at intervals of 0.5, 1.0, 1.5, 2.0, 2.5, 3.0 and 5.0 minutes (±15% tolerance limit for time) and replaced with an equal volume of purified water (freshwater, maintained at the same temperature) at each sampling point. Samples were immediately filtered using 0.45 μm RC syringe filters.
Samples were appropriately diluted and analyzed by HPLC. The amount of drug release was calculated from a standard calibration curve, which was prepared on the day of the experiment.

[2] = Particle size distribution by laser diffraction (dry powder)
Experimental: The particle size distribution of powder samples (crystals, coated crystals) was determined using a laser diffraction analyzer (Malvern Mastersizer 3000, Worcestershire, United Kingdom) connected to Aero S dry powder dispersion, as this technique enables measurement in the range between 100 nm and 3500 μm. Approximately 2-3 g of sample was put into the dosing device, air pressure was set to 1.2 bar for coated crystals and granulates (for micronized paracetamol the dispersing air pressure was set to 3.0 bar). Measurement was performed automatically when obscuration was in a range between 0.5 and 5%. Background measurements were performed for 10 seconds and the stabilization time delay before initialization (time before measurements after the desired obscuration was achieved) was set to 3 seconds and measurement duration to 5 seconds respectively. The nonspherical measurement mode approximation was used to determine the particle size distribution for paracetamol crystals and coated crystals. A refraction index and absorption rate for paracetamol were set to 1.62 and 0.01 respectively. The distribution results were expressed as three values: d10, where 10% of the particle population lies below the measured value; d50, the median value; and d90, where 90 percent of the population lies below the measured value.

[3] = Sessile drop water contact angle on compressed plates; set-up: key to Observed sweling: — = not measurable; * = observed; ** = fast swelling; *** = very fast swelling; details: for Δ θ: decrease of water contact angle from 0 s to 30 s; for Observed sweling: during contact angle measurement; for θ at time 0 s (st. deviation) / θ at time 30 s (st. deviation): sessile drop water contact angle, 3 μL drop, flat surface plate, room temperature
Experimental: The water contact angle on compressed powders of the different polymers used as the first coating layer, trehalose and erythritol was measured with a Kruss sessile drop contact angle meter DSA100 (Krυss, Germany) at room temperature. 200 mg of powder was compressed with a Specac hydraulic press (Kent, England) with a 10 s dwell time at a pressure of 4×10^8 Pa. A circular punch and dye assembly (12 mm diameter) with polished stainless steel round punches were used for compression. At least six repetitions on three different plates of the same polymer or other two excipients were performed to ensure the reproducibility of results. Measurements were performed with 3 μL water drop and video recording (software DSA 1.90.0.14 Krυss, Germany) that enabled the determination of contact angles at time zero and 30 seconds later. Contact angles at these two-time points together with visual observation of surface swelling were taken as relevant parameters for polymers differentiation. In the same manner, trehalose and erythritol were also analyzed.

[4] = laser diffraction, Comparative Example 1 and Example 2
[5] = Example 3, coated crystals 250-500 μm, milled erythritol, final granules from high shear mixer

In the case of `CC(=O)Nc1ccc(O)cc1` [Paracetamol—large crystals, uncoated, paracetamol], the “dissolution rate in water” value [1] is reported as “dissoves much faster than from coated particles”, the d10 [2, 4] is reported as 208 μm and the d50 [2, 4] is reported as 458 μm. For the same compound, the d90 [2, 4] was 772 μm.

In the case of `OC[C@H]1O[C@H](O[C@H]2O[C@H](CO)[C@@H](O)[C@H](O)[C@H]2O)[C@H](O)[C@@H](O)[C@@H]1O` [Trehalose, trehalose], the “Δ θ” value [3] is reported as 4.8 °, the Observed sweling [3] is reported as “—” and the “θ at time 0 s (st. deviation)” value [3] is reported as 13.4 (1.9) °. For the same compound, the “θ at time 30 s (st. deviation)” value [3] was 8.6 (2.0) °.

For `CC(=O)Nc1ccc(O)cc1` [Paracetamol—milled, uncoated, paracetamol], the d10 [2, 4] was 5 μm, the d50 [2, 4] was 32 μm and the d90 [2, 4] was 152 μm.

In the case of `OC[C@@H](O)[C@@H](O)CO` [Erythritol, erythritol], the “Δ θ” value [3] is reported as 0 °, the Observed sweling [3] is reported as “—” and the “θ at time 0 s (st. deviation)” value [3] is reported as 0 °. The “θ at time 30 s (st. deviation)” value [3] was 0 °, the d10 [2, 5] was 7 μm and the d50 [2, 5] was 46 μm. The d90 [2, 5] was 108 μm.
